Laboratory results taken from patent US11918550B2, “Sensitization of cancer cells to differentiation therapy with mitochondrial uncoupler niclosamide ethanolamine” (The Board of Trustees of the Leland Stanford Junior …, priority 2020, dated 2024).

Experiments:
neuroblastoma cells = test: Cell proliferation (cell counting); assay type: cell-based; details: 1 μM NEN vs DMSO
Protocol: Cell proliferation and clonogenic assay. 2×10^4 cells were seeded in 12 well-plate and allowed to attached overnight. […] After treatment, cells were counted using hemocytometer.

[1] = test system: orthotopic neuroblastoma xenograft (SK-N-BE(2) cells); test: Metabolite levels in orthotopic xenograft tumors by LC/MS; assay type: in vivo, mice; details: diet 2000 ppm NEN vs control
Protocol: Metabolic analysis. For the metabolomics and isotope tracing analysis in vitro, cells were washed with cold PBS, lysed in 80% Ultra LC-MS acetonitrile on ice for 15 minutes, centrifuged at 20,000 g for 10 minutes at 4° C., and supernatant was subjected to mass spectrometry analysis. For the metabolomics analysis in vivo, 10-20 mg tissue were cut off on ice, rinsed if necessary to remove blood, and place in a 2 ml round-bottom cryovial. The tissues were homogenized by 3 times 10 s on/off bursts homogenization in 1 ml 80% methanol on dry ice. Transfer the homogenate to an Eppendorf tube and keep on liquid nitrogen while processing the remaining samples. Incubated all the samples in −80° C. for 30 minutes. After incubation, vortexed the samples for 5 seconds. Then centrifuged the samples at 20,000 g for 10 minutes at 4° C., and supernatant was subjected to mass spectrometry analysis. Resuspend the remaining cellular pellet in 100 ul protein lysis buffer and determine the protein concentration. Then calculate the total protein content per sample.
Liquid chromatography was performed using an Agilent 1290 Infinity LC system (Agilent, Santa Clara, US) coupled to a Q-TOF 6545 mass spectrometer (Agilent, Santa Clara, US). A hydrophilic interaction chromatography method (HILIC) with a BEH amide column (100×2.1 mm i.d., 1.7 μm; Waters) was used for compound separation at 35° C. with a flow rate of 0.3 ml/minutes. The mobile phase A consisted of 25 mM ammonium acetate and 25 mM ammonium hydroxide in water and mobile phase B was acetonitrile. The gradient elution was 0-1 minute, 85% B; 1-12 minutes, 85% B→65% B; 12-12.2 minutes, 65% B→40% B; 12.2-15 minutes, 40% B. After the gradient, the column was re-equilibrated at 85% B for 5 minutes. The overall runtime was 20 minutes, and the injection volume was 5 μL. […]
Mouse orthotopic neuroblastoma model. […] Tumor formation was monitored by non-invasive ultrasound measurements, and the animals euthanized when the tumor volume exceeded 1,000 mm^3.

[2] = test system: orthotopic neuroblastoma xenograft (SK-N-BE(2) cells); test: Orthotopic neuroblastoma xenograft model, tumor growth by ultrasound; assay type: in vivo, mice; details: diet 2000 ppm NEN (n=4) vs control group (n=6)
Protocol: Mouse orthotopic neuroblastoma model. All mouse procedures were performed in accordance with Stanford University recommendations for the care and use of animals and were maintained and handled under protocols approved by the Institutional Animal Care and Use Committee. All procedures were performed with female NC nude mice (Taconic, Hudson, NY, USA) at 7 weeks of age. Procedures and ultrasound measurements (see below) were performed under general anesthesia using isoflurane inhalation. Orthotopic tumors within the adrenal gland were created as described before 16. Briefly, a transverse incision was made on the left flank to locate the left adrenal gland, and […] of phosphate buffered saline (PBS) containing […] SK-N-BE(2) cells were injected into the adrenal gland using a 30 G needle. Fascia and skin were closed in separate layers. Tumor formation was monitored by non-invasive ultrasound measurements, and the animals euthanized when the tumor volume exceeded 1,000 mm^3. Monitoring tumor growth with high frequency ultrasound. After securing the mouse in a prone position, a Visual Sonics Vevo 2100 sonographic probe (Toronto, Ontario, Canada) was applied to the left flank to locate the left adrenal gland and the tumor. […] The tumor volume was measured using the 3-D reconstruction tool (Vevo Software v1.6.0, Toronto, Ontario, Canada).

O=C(Nc1ccc([N+](=O)[O-])cc1Cl)c1cc(Cl)ccc1O [NEN, 5-chloro-N-(2-chloro-4-nitrophenyl)-2-hydroxybenzamide compound with 2-aminoethanol (1:1)]
cell proliferation (neuroblastoma cells): significantly inhibited
2-HG level in the tumor [1]: reduced
NAD+/NADH in the tumor [1]: increased
lactate level in the tumor [1]: slightly reduced
tumor growth [2]: significantly slowed
